In one assay the target is E. coli NtrB (Escherichia coli, UniProt P0AFB5). In words: DRaCALA binding of radiolabeled nucleotides to purified NtrB. The following applies: 20 μM purified protein; 500 nM 14C-cAMP, 4 nM 32P-ATP or 4 nM 32P-cdiGMP. The procedure:
(§1) Radiolabeled ligands were incubated with each of the proteins and the mixtures were spotted on nitrocellulose. After spreading by capillary action, membranes were dried and quantitated by phosphorimager. […] The specificity of Alg44PilZ binding to cdiGMP was further tested by competition with excess unlabeled nucleotides (400-fold molar excess relative to the Alg44PilZ protein).
Protein or whole cell lysates in 1× cdiGMP binding buffer (20 μl) was mixed with 4 nM of radiolabeled nucleotide and allowed to incubate for 10 minutes at room temperature. Radiolabeled nucleotide was competed away by cold nucleotides in concentrations and for times indicated. Purified proteins were tested in technical replicates. Whole cell lysates in FIG. 4 and FIG. 12 were tested in biological triplicates. Whole cell lysates in FIG. 5 were tested in technical replicates. These mixtures were pipetted (2.5-5 μl) onto dry, untreated nitrocellulose (GE Healthcare) in triplicate and allowed to dry completely before quantification. An FLA7100 Fujifilm Life Science Phosphorimager was used to detect luminescence following a 5-minute exposure of blotted nitrocellulose to phosphorimager film. Data was quantified using Fujifilm Multi Gauge software v3.0.

Assay [1] addresses T1, Alg44PilZ expressed in E. coli BL21(DE3) (Pseudomonas aeruginosa, UniProt Q9HY69).
T1 construct: E. coli BL21(DE3) expressing Alg44PilZ and variants; expressed in transfected cells; host or cells: E. coli BL21(DE3), whole cell lysate
In words: DRaCALA of whole cell lysates of E. coli BL21(DE3) expressing Alg44PilZ. Type of assay: binding, P. aeruginosa. The source says: A major limitation of most biochemical assays is the requirement for purified protein. We asked whether DRaCALA could be applied to crude extracts to overcome this limitation. Alg44PilZ binding to cdiGMP requires a number of conserved residues, including R17, R21, D44 and S46, in the PilZ domain of the protein. E. coli BL21(DE3) expressing Alg44PilZ and variants with R21A, D44A, S46A, and R17A/R21A substitutions were lysed and tested for binding to cdiGMP using DRaCALA. […] Only the whole cell lysates from E. coli expressing wild-type Alg44PilZ sequestered ^32P-cdiGMP (FIG. 4A). […] A significant difference between the bound fractions for cdiGMP or GTP competition experiments was detected for the wild-type Alg44PilZ, but not for the PilZ domain mutants (FIGS. 4A and 4B). […]
Protein or whole cell lysates in 1× cdiGMP binding buffer (20 μl) was mixed with 4 nM of radiolabeled nucleotide and allowed to incubate for 10 minutes at room temperature. […] These mixtures were pipetted (2.5-5 μl) onto dry, untreated nitrocellulose (GE Healthcare) in triplicate and allowed to dry completely before quantification. An FLA7100 Fujifilm Life Science Phosphorimager was used to detect luminescence following a 5-minute exposure of blotted nitrocellulose to phosphorimager film. Data was quantified using Fujifilm Multi Gauge software v3.0. […]

Assay [2] relates to whole-cell lysates of P. aeruginosa strains. Put plainly: DRaCALA analysis of cdiGMP binding by whole-cell lysates of P. aeruginosa strains.
For assay [3], the target named is Maltose binding protein (MBP) (Escherichia coli, UniProt P0AEX9). The following applies: whole-cell lysate, 8 nM 32P-cdiGMP. The procedure: as §1
The target of another assay is Vc2* riboswitch RNA. Put plainly: DRaCALA of cdiGMP binding to biotinylated Vc2* RNA immobilized by streptavidin. The following applies: Vc2*-biotin RNA diluted, 4 nM 32P-cdiGMP. The procedure:
FIG. 19. Vc2* RNA binding to ^32P-cdiGMP is detected by DRaCALA. (A) Spots visualized by phosphorimager with streptavidin used to immobilize biotinylated RNA. The binding reaction contained 4 nM ^32P-cdiGMP, 1 μM RNA, and 200 nM streptavidin in buffer (10 mM KCl, 10 mM sodium cacodylate, 3 mM MgCl2). (B) The affinity of Vc2*-biotin RNA for cdiGMP was determined with both EMSA and DRaCALA by diluting RNA in the binding reaction. The fraction bound is normalized such that 1.0 represents maximal binding.
We have shown that protein interaction with DNA can be detected by DRaCALA. We wondered if the principle of DRaCALA would also apply to ribonucleic acids. In particular, can the DRaCALA technology be used to detect the interaction of riboswitches with their small molecule ligands. One example of such an interaction that has been of recent interest is the cdiGMP responsive Vc2 riboswitch identified in bacteria. To study such an interaction with DRaCALA, one of the binding partners must be immobilized. […] The biotinylated riboswitch was sequestered by streptavidin, allowing the nucleic acid to take the place of protein as the immobile partner in the binding assay. Vc2* was tested directly for sequestration of cdiGMP and also biotinylated and tested for binding to cdiGMP in the presence or absence of streptavidin. […]

The next assay concerns the target T2, Alg44PilZ (Pseudomonas aeruginosa, UniProt Q9HY69).
T2 construct: Previous studies of the dissociation rate of cdiGMP from Alg44PilZ
The following applies: previously determined by ITC (Merighi 2007); cited from earlier work. (In general: In ITC the heat of successive injections is recorded.)

T1 sequence (Q9HY69 16-116): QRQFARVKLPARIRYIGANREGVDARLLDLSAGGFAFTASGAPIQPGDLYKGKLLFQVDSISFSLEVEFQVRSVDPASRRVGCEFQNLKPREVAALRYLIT
T2 sequence (Q9HY69 16-116): as above
Chain of E. coli NtrB (P0AFB5 whole entry): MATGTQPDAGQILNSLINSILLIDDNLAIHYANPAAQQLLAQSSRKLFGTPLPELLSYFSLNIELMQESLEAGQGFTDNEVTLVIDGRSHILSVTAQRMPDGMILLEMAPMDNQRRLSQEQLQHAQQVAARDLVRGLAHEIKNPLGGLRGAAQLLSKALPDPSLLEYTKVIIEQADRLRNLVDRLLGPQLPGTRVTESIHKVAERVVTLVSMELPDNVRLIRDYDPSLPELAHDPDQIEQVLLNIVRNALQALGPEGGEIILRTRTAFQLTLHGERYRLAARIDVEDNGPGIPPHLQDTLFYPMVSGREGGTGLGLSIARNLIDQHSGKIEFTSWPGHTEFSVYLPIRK

Take `Nc1nc2c(ncn2[C@@H]2O[C@@H]3CO[P@](=O)(O)O[C@H]4[C@@H](O)[C@H](n5cnc6c(=O)[nH]c(N)nc65)O[C@@H]4CO[P@](=O)(O)O[C@H]3[C@H]2O)c(=O)[nH]1` [cdiGMP, cyclic-di-GMP]: on E. coli NtrB, the “binding to NtrB (sequestration of radiolabel signal)” value is “not”. Also, the “specific sequestration by whole cell extracts with soluble or insoluble protein” value in assay [1] (Alg44PilZ with or without MBP tag, BL21 whole cell extracts) was “specifically sequester”. In assay [1] (E. coli BL21(DE3) expressing wild-type Alg44PilZ), the “sequestration of 32P-cdiGMP by whole cell lysate” value is on record as “sequestered”. The BSp stood at 1.19 in assay [2] (PA14 overexpressing diguanylate cyclase WspR), 3.51 in assay [2] (PA14 overexpressing phosphodiesterase RocR), 2.70 in assay [2] (PA14ΔpelD overexpressing RocR) and 1.27 in assay [2] (wild-type PA14 extract). Moreover, the “average BSp of strain groups isolated from different sources” value in assay [2] (all groups) is listed as “greater than 1.48”. The “Average Bc” value in assay [2] (average over all P. aeruginosa lysates of the table) worked out at 0.185. Moreover, in assay [3], the “binding by protein extracts from E. coli expressing MBP alone” value was “did not bind”. Also, the Kd (in general, the equilibrium constant for the complex coming apart) at Vc2* riboswitch RNA was 7.8 nM; at Alg44PilZ, 5.6 µM.
